This note sets out measurements from publication PMC9455983 (International Journal of Molecular Sciences, 2022).

SMILES strings stand for the structures. Where two headings read alike, the source gives them in different places.

In series [1] the target is T1, kappa-opioid receptor (KOR) (Cavia porcellus, UniProt P41144).
T1 construct: Guinea pig cortices and cerebella were homogenized using 50 mM Tris, pH 7.4; from tissue; host or cells: guinea pig cortex and cerebellum membranes
Nature of the series: KOR radioligand competition binding assay ([3H]U69,593). On the set-up: species or system guinea pig. The settings on record: Kappa screening results. A digest of the protocol:
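Guinea pig cortex and cerebellum homogenates in 50 mM Tris pH 7.4 with 10 mM MgCl2, 2 nM [3H]U69,593, 2 h at 25 °C. Unlabeled U50,488 gave the standard curve and nonspecific binding. Filtration on BSA-soaked GF/B filters, scintillation counting; two replicates, repeated twice, mean ± SD.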

The subject of series [2] is C57BL/6J mice. In words: Respiration rate in CLAMS/Oxymax system. The settings on record: i.c.v. The series is classed as in vivo, mouse. The procedure:
Respiration rates (in breaths per minute) and animal locomotive activity (as ambulations) were assessed using the Oxymax/CLAMS system (Columbus Instruments, Columbus, OH), as described previously. Mice were habituated to their individual sealed housing chambers for 60 min before testing. Mice were administered 1968-22 (0.3–100 nmol, i.c.v.), morphine (100 nmol, i.c.v.), or vehicle, as indicated, and five min later confined to the CLAMS testing chambers. Pressure monitoring within the sealed chambers measured frequency of respiration. Infrared beams located in the floor measured locomotion as number of beam breaks. Respiration and locomotive data were averaged over 20 min periods for 120 min post-injection of the test compound. Data are presented as % vehicle response ± SEM, ambulation or breaths per minute.

In series [3] the target is T2, delta-opioid receptor (DOR) (Rattus norvegicus, UniProt P33533).
T2 construct: Rat cortices were homogenized using 50 mM Tris, pH 7.4, 10 mM MgCl2-6H2O, 200 µM PMSF; from tissue; host or cells: rat cortex membranes
Nature of the series: DOR radioligand competition binding assay ([3H]-DPDPE). The settings on record: Delta screening results. A digest of the protocol: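 Radioligand was 2 nM [3H]-DPDPE, incubated 2.5 h at 25 °C with homogenized rat cortex (50 mM Tris pH 7.4, 10 mM MgCl2, 200 µM PMSF). Bound ligand separated on GF/B filters and counted; nonspecific binding from unlabeled DPDPE. Values are mean ± SD, two experiments, two replicates each.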

Where [4] appears, read: mean of two experiments, read-out: Ki.

Regarding `Cc1cc(O)cc(C)c1C[C@H]1CN([C@@H](Cc2c(C)cc(O)cc2C)CN2C(=N)NC[C@@H]2C)C(=N)N1` [1968-22], the Ki in series [1] (experiment 1, unit inferred, read-out: Ki (Exp 1)) came out at 195 nM; in series [1] (experiment 2, unit inferred, read-out: Ki (Exp 2)), 242 nM; in series [1] (setting [4]), 218 nM; in series [3] (first Ki column, unit not printed (apparently M), read-out: Ki (first column)) it was 260 nM; in series [3] (mean of both Ki, unit inferred, read-out: MEAN (Ki)), 265 nM; in series [3] (setting [4]), 265 nM. In series [3] (second Ki column, unit not printed (apparently M), read-out: Ki (second column)), the Ki came out at 271 nM. Besides, the “effect on respiration rate vs vehicle” value was “increases in respiration rates” in series [2] (100 nmol) and “did not have any significant effect” in series [2] (0.3, 1 or 10 nmol).
